According to patent US5070210A, “Novel ketenimines as intermediates for insecticides” (ICI Americas Inc., priority 1990, dated 1991):

Tests used:
Assay type in all cases: in vivo
[1] = test system: Cabbage Looper [Trichoplusia ni (Hubner)]; assay: Cabbage looper insecticidal test; details: second-instar larvae, percent in solution; 3-5 days
Method in brief: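 Steps: dilute compound in 50-50 acetone-water from 0.1% downward; immerse cotyledon pieces 2-3 s and dry; place in humid petri dishes with five second-instar larvae; record mortality at 3-5 days. Dosage-mortality curves yield LC50 as percent in solution.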

[2] = test system: Maize weevil [Sitophilus Zeamais (Motschulsky)]; assay: Maize weevil insecticidal test; details: adult weevils, percent in solution; 48 hours
Method in brief: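 LC50, in percent of compound in solution, was derived from dosage-mortality curves after 48 h at about 25 °C. Ten adult weevils per container fed on four corn seeds briefly immersed in acetone:water (50:50) solutions of up to 0.01% and dried.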

[3] = test system: Tobacco Budworm [Heliothis virescens (Fabricius)] larvae; assay: Tobacco budworm contact test; details: second-instar larvae, percent in solution, 5 days
Description: The compounds in Tables 1 and 2 above were tested for insecticidal activity using the following testing procedures. LC50 values, based on the results of these tests and calculated according to dosage-mortality curves, are expressed in Table 3.
Tobacco Budworm [Heliothis virescens (Fabricius)]:
(a) Contact: Test compounds were diluted in a 50-50 acetone-water solution. Cotton (Gossypium sp.) cotyledons were immersed in the test solutions for 2-3 seconds and placed on a wire screen to dry. The dried leaves were placed in petri dishes containing a moistened piece of filter paper and infested with 5 second-instar tobacco budworm larvae. The dishes were placed in a high humidity chamber for 5 days, and percent mortality of the larvae recorded. Test concentrations ranged from 0.1% downward. The LC-50 values are expressed below in Table 3 under the heading "TBW-C" in terms of percent of the test compound in the solution.

[4] = test system: Aster Leafhopper [Macrosteles fascifrens (Stal)]; assay: Aster leafhopper insecticidal test; details: adults/nymphs, percent in solution; 48 hours
Method in brief: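 Three ~10 cm oat seedlings per cup were dipped 2-3 seconds in 50-50 acetone-water compound solutions, dried, and caged with ten adult/nymph leafhoppers. Mortality was counted after 48 hours at concentrations from 0.05% downward. LC50, as percent compound in solution, came from dosage-mortality curves.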

[5] = test system: Tobacco Budworm [Heliothis virescens (Fabricius)] eggs; assay: Tobacco budworm egg test; details: 2-day old eggs, percent in solution
Method in brief: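 Mortality of dipped eggs served as read-out, recorded after untreated controls hatched and began feeding. Treatments used acetone solutions from 0.1% downward, with eggs incubated at 78° F; LC50 is expressed as percent of compound in the solution.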

[6] = test system: Housefly [Musca domestica]; assay: Housefly insecticidal test; details: μg per 25 female flies; mortality after 48 hours
Method in brief: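 Dose range started at 100 μg per 25 female flies and went downward. Insects (1-2 days old) contacted a dried acetone/peanut-oil deposit in dishes; LC50 values come from dosage-mortality curves at 48 h.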

Compound | LC50, CL [1] | LC50, MW [2] | LC50, TBW, C (TBW-C) [3] | LC50, LH [4] | LC50, TBW, E (TBW-E) [5] | LC50, HF [6]
CC1(C(=Nc2ccc(Cl)cc2)OCc2cccc(Oc3ccccc3)c2)CC1 [Compound 5] | 0.005% | > 0.01% | 0.008% | > 0.05% | 0.05% | 21 µg
CC(C)(C)C(=Nc1ccc(Cl)cc1)OCc1cccc(Oc2ccccc2)c1 [Compound 30] | 0.003% | > 0.01% | 0.01% | > 0.05% | > 0.1% | > 100 µg
CC(C)C(=Nc1ccc(Cl)c(Cl)c1)OCc1cccc(Oc2ccc(F)cc2)c1 [Compound 37] | 0.0004% | 0.009% | 0.0005% | 0.002% | 0.014% | 21 µg
CC(C)C(=Nc1c(F)c(F)c(F)c(F)c1F)OCc1cccc(Oc2ccccc2)c1 [Compound 51] | 0.001% |  | 0.0025% | 0.001% | 0.067% | 25 µg
CC(C)C(=Nc1ccc(F)c(F)c1)OCc1cccc(Oc2ccc(F)cc2)c1 [Compound 60] | 0.001% | 0.0075% | 0.0009% | 0.002% | 0.017% | 8 µg
Cc1ccc(N=C(OCc2cccc(Oc3ccccc3)c2)C(C)C)cc1F [Compound 75] | 0.0025% |  | 0.0075% | 0.0008% | 0.01% | 5 µg
CC(C)C(=Nc1ccc(F)c(C(F)(F)F)c1)OCc1cccc(Oc2ccc(F)cc2)c1 [Compound 120] | 0.00015% | > 0.01% | 0.0025% | 0.0003% | 0.04% | 14 µg
CCOc1ccc(N=C(OCc2cccc(Oc3ccccc3)c2)C(Cl)Cl)cc1 [Compound 138] | 0.005% | > 0.01% | 0.015% | > 0.05% | 0.08% | 19 µg
COc1ccccc1N=C(OCc1cccc(Oc2ccccc2)c1)C(C)C [Compound 145] | 0.05% |  | 0.05% | > 0.05% | > 0.1% | > 100 µg
CC(C)C(=Nc1cccc(Cl)c1)OCc1cccc(Oc2ccc(F)cc2)c1 [Compound 194] | 0.0005% | > 0.01% | 0.0017% | 0.0005% | 0.04% | 10 µg
CC(C)C(=Nc1ccc(F)c(Cl)c1)OCc1cccc(Oc2ccc(C#N)cc2)c1 [Compound 196] | 0.0006% | > 0.01% | 0.001% | > 0.05% | > 0.1% | 17 µg
CC(C)C(=Nc1cc(F)cc(F)c1)OCc1cccc(Oc2ccc(F)cc2)c1 [Compound 199] | 0.0006% | > 0.01% | 0.003% |  | > 0.1% | 8 µg
CC(C)C(=Nc1cccc(C(F)(F)F)c1)OCc1cccc(Oc2ccc(F)cc2)c1 [Compound 202] | 0.00024% | > 0.01% | 0.0007% | 0.0003% | > 0.1% | 18 µg
CC(C)(C)C(=Nc1ccc(F)c(Cl)c1)OCc1cccc(Oc2ccc(F)cc2)c1 [Compound 204] | 0.0023% | > 0.01% | 0.004% |  | > 0.1% | > 100 µg
CC(C)C(=Nc1ccc(F)cc1F)OCc1cccc(Oc2ccc(F)cc2)c1 [Compound 209] | 0.0007% | > 0.01% | 0.005% | 0.001% | 0.1% | 17 µg
CCC(C)C(=Nc1ccc(F)c(Cl)c1)OCc1cccc(Oc2ccc(F)cc2)c1 (stereo not shown) [Compound 210] | 0.00028% | > 0.01% | 0.0015% |  | 0.045% | 35 µg
CC(C)C(=Nc1ccc2c(c1)OC(C)(C)O2)OCc1cccc(Oc2ccc(F)cc2)c1 [Compound 219] | 0.00025% | > 0.01% | 0.004% |  | 0.027% | 50 µg
CC(C)C(=Nc1ccc(Br)cc1)OCc1cccc(Oc2ccc(F)cc2)c1 [Compound 226] | 0.0005% | 0.009% | 0.001% | 0.002% | 0.1% | 16 µg
CC(C)C(=Nc1ccc(I)cc1)OCc1cccc(Oc2ccc(F)cc2)c1 [Compound 234] | 0.00045% | > 0.01% | 0.0013% | 0.003% | 0.09% | 38 µg
CC(C)C(=Nc1ccc(F)c(Cl)c1)OCc1cccc(Oc2ccc(Br)cc2)c1 [Compound 238] | 0.0002% | > 0.01% | 0.0004% | > 0.05% | 0.05% | 25 µg
CC(C)C(=Nc1ccc(F)c(Br)c1)OCc1cccc(Oc2ccc(F)cc2)c1 [Compound 253] | 0.00013% | > 0.01% | 0.0005% | 0.003% | > 0.1% | 10 µg
CC(C)C(=Nc1ccc(F)c(C(F)(F)F)c1)OCc1ccc(F)c(Oc2ccc(Cl)cc2)c1 [Compound 297] | 0.00027% | 0.0071% | 0.00075% | 0.0001% | 0.025% | 23 µg
C=C(C)C(=Nc1ccc(C(F)(F)F)cc1)OCc1ccc(F)c(Oc2ccc(Cl)cc2)c1 [Compound 432] | 0.0012% | > 0.01% | < 0.1% |  | 0.032% | < 100 µg
